System: LG0703-F498-PDC complex spheroid growth
Experiment: Anticancer human tumor LG0703-F498-PDC patient-derived lung adenocarcinoma cell line growth inhibition [AhR]
Settings: for IC50: curve of first compound; for viability, T/C: stronger effect = lower value
How it was run: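 Agents were dosed in half-log steps down from roughly clinical Cmax, or from 10 microM where Cmax was unknown, alone and with AhR antagonists. Read-out: percent test/control growth of tumor spheroids containing HUVEC and MSC stromal cells.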

[1] = second compound 0.1 µM, first compound 0.00949 µM
[2] = second compound 0.1 µM, first compound 0.03 µM
[3] = second compound 0.1 µM, first compound 0.0949 µM
[4] = second compound 0.1 µM, first compound 0.3 µM
[5] = second compound 0.316 µM, first compound 0.00949 µM
[6] = second compound 0.316 µM, first compound 0.03 µM
[7] = second compound 0.316 µM, first compound 0.0949 µM
[8] = second compound 0.316 µM, first compound 0.3 µM
[9] = second compound 1 µM, first compound 0.00949 µM
[10] = second compound 1 µM, first compound 0.03 µM
[11] = second compound 1 µM, first compound 0.0949 µM
[12] = second compound 1 µM, first compound 0.3 µM
[13] = second compound 3.16 µM, first compound 0.00949 µM
[14] = second compound 3.16 µM, first compound 0.03 µM
[15] = second compound 3.16 µM, first compound 0.0949 µM
[16] = second compound 3.16 µM, first compound 0.3 µM
[17] = second compound 10 µM, first compound 0.00949 µM
[18] = second compound 10 µM, first compound 0.03 µM
[19] = second compound 10 µM, first compound 0.0949 µM
[20] = second compound 10 µM, first compound 0.3 µM
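Also: luminescence taken as a proxy for viable cell amount.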
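For viability, T/C in this document: percent of DMSO vehicle control where 100% means growth equal to vehicle.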

`COc1ccc([C@@H](O)c2cc(-c3ncnc4cc(N5CCOCC5)ccc34)c(F)cc2Cl)nn1` + CC(CO)NC(=O)c1cc(-c2ccc(Cl)cc2)nn(-c2cnn(C)c2)c1=O was tested, and the IC50 (second compound 0.1 µM) was 3650 nM, the IC50 (second compound 0.316 µM) was 4790 nM and the IC50 (second compound 1 µM) was 5260 nM. For the same compound, the IC50 (second compound 3.16 µM) was 3180 nM, the IC50 (second compound 10 µM) was 2910 nM and the viability, T/C (second compound 0.1 µM, first compound 0.0316 µM) was 88.9%. It also gave a viability, T/C (second compound 0.1 µM, first compound 0.1 µM) of 89.9%, a viability, T/C (second compound 0.1 µM, first compound 0.316 µM) of 93.5% and a viability, T/C (second compound 0.1 µM, first compound 1 µM) of 76%. The viability, T/C (second compound 0.1 µM, first compound 3.16 µM) was 53.5%, the viability, T/C (second compound 0.1 µM, first compound 10 µM) was 31.7% and the viability, T/C (second compound 0.316 µM, first compound 0.0316 µM) was 94.2%. The viability, T/C (second compound 0.316 µM, first compound 0.1 µM) was 95.8%, the viability, T/C (second compound 0.316 µM, first compound 0.316 µM) was 81% and the viability, T/C (second compound 0.316 µM, first compound 1 µM) was 74.5%. It also gave a viability, T/C (second compound 0.316 µM, first compound 3.16 µM) of 64.5%, a viability, T/C (second compound 0.316 µM, first compound 10 µM) of 30.5% and a viability, T/C (second compound 1 µM, first compound 0.0316 µM) of 97.4%. The viability, T/C (second compound 1 µM, first compound 0.1 µM) was 95.1%, the viability, T/C (second compound 1 µM, first compound 0.316 µM) was 88.1% and the viability, T/C (second compound 1 µM, first compound 1 µM) was 83.8%. It also gave a viability, T/C (second compound 1 µM, first compound 3.16 µM) of 61.6%, a viability, T/C (second compound 1 µM, first compound 10 µM) of 34.4% and a viability, T/C (second compound 3.16 µM, first compound 0.0316 µM) of 93.1%. It also gave a viability, T/C (second compound 3.16 µM, first compound 0.1 µM) of 86.4%, a viability, T/C (second compound 3.16 µM, first compound 0.316 µM) of 88.1% and a viability, T/C (second compound 3.16 µM, first compound 1 µM) of 68.3%. The viability, T/C (second compound 3.16 µM, first compound 3.16 µM) was 51.2%, the viability, T/C (second compound 3.16 µM, first compound 10 µM) was 32.1% and the viability, T/C (second compound 10 µM, first compound 0.0316 µM) was 78.5%. For the same compound, the viability, T/C (second compound 10 µM, first compound 0.1 µM) was 88.3%, the viability, T/C (second compound 10 µM, first compound 0.316 µM) was 77.1% and the viability, T/C (second compound 10 µM, first compound 1 µM) was 69.5%. For the same compound, the viability, T/C (second compound 10 µM, first compound 3.16 µM) was 48.5% and the viability, T/C (second compound 10 µM, first compound 10 µM) was 33.4%.

`Nc1ncn(C2CC(O)C(CO)S2)c(=O)n1` (stereo not given) + CC(CO)NC(=O)c1cc(-c2ccc(Cl)cc2)nn(-c2cnn(C)c2)c1=O was tested, and the IC50 (second compound 0.1 µM) was > 300 nM, the IC50 (second compound 0.316 µM) was > 300 nM and the IC50 (second compound 1 µM) was > 300 nM. The IC50 (second compound 3.16 µM) was > 300 nM, the IC50 (second compound 10 µM) was > 300 nM and the viability, T/C (second compound 0.1 µM, first compound 0.000949 µM) was 89.3%. It also gave a viability, T/C (second compound 0.1 µM, first compound 0.003 µM) of 96.6%, a viability, T/C [1] of 95.6% and a viability, T/C [2] of 102%. The viability, T/C [3] was 92.8%, the viability, T/C [4] was 91.8% and the viability, T/C (second compound 0.316 µM, first compound 0.000949 µM) was 108%. The viability, T/C (second compound 0.316 µM, first compound 0.003 µM) was 93.9%, the viability, T/C [5] was 96.2% and the viability, T/C [6] was 103%. For the same compound, the viability, T/C [7] was 97.1%, the viability, T/C [8] was 97.8% and the viability, T/C (second compound 1 µM, first compound 0.000949 µM) was 82.4%. The viability, T/C (second compound 1 µM, first compound 0.003 µM) was 92%, the viability, T/C [9] was 90.2% and the viability, T/C [10] was 76.9%. It also gave a viability, T/C [11] of 84.8%, a viability, T/C [12] of 97.7% and a viability, T/C (second compound 3.16 µM, first compound 0.000949 µM) of 80.5%. For the same compound, the viability, T/C (second compound 3.16 µM, first compound 0.003 µM) was 90.9%, the viability, T/C [13] was 78.3% and the viability, T/C [14] was 94.8%. For the same compound, the viability, T/C [15] was 96.1%, the viability, T/C [16] was 89.5% and the viability, T/C (second compound 10 µM, first compound 0.000949 µM) was 86.9%. For the same compound, the viability, T/C (second compound 10 µM, first compound 0.003 µM) was 86.7%, the viability, T/C [17] was 84.9% and the viability, T/C [18] was 86.7%. For the same compound, the viability, T/C [19] was 81.9% and the viability, T/C [20] was 92.2%.

`O=C(C=Cn1cnc(-c2cc(C(F)(F)F)cc(C(F)(F)F)c2)n1)NNc1cnccn1` + CC(CO)NC(=O)c1cc(-c2ccc(Cl)cc2)nn(-c2cnn(C)c2)c1=O showed an IC50 (second compound 0.1 µM) of 60 nM, an IC50 (second compound 0.316 µM) of 45.6 nM and an IC50 (second compound 1 µM) of 57.3 nM. The IC50 (second compound 3.16 µM) was 26.9 nM, the IC50 (second compound 10 µM) was 39.7 nM and the viability, T/C [1] was 68.1%. The viability, T/C [2] was 64.5%, the viability, T/C [3] was 40.4% and the viability, T/C [4] was 40.6%. For the same compound, the viability, T/C (second compound 0.1 µM, first compound 0.949 µM) was 37.8%, the viability, T/C (second compound 0.1 µM, first compound 3 µM) was 36.9% and the viability, T/C [5] was 67.3%. The viability, T/C [6] was 54.5%, the viability, T/C [7] was 42.1% and the viability, T/C [8] was 36.2%. The viability, T/C (second compound 0.316 µM, first compound 0.949 µM) was 35.6%, the viability, T/C (second compound 0.316 µM, first compound 3 µM) was 32.4% and the viability, T/C [9] was 64.8%. The viability, T/C [10] was 54.1%, the viability, T/C [11] was 48% and the viability, T/C [12] was 36.7%. For the same compound, the viability, T/C (second compound 1 µM, first compound 0.949 µM) was 34.1%, the viability, T/C (second compound 1 µM, first compound 3 µM) was 34.1% and the viability, T/C [13] was 59.5%. It also gave a viability, T/C [14] of 50.1%, a viability, T/C [15] of 36.1% and a viability, T/C [16] of 38.2%. It also gave a viability, T/C (second compound 3.16 µM, first compound 0.949 µM) of 28.7%, a viability, T/C (second compound 3.16 µM, first compound 3 µM) of 31.4% and a viability, T/C [17] of 61%. It also gave a viability, T/C [18] of 54.7%, a viability, T/C [19] of 35.7% and a viability, T/C [20] of 33.3%. The viability, T/C (second compound 10 µM, first compound 0.949 µM) was 28.6% and the viability, T/C (second compound 10 µM, first compound 3 µM) was 28.9%.
